The text below walks through data of PMC9853848 (Journal of the American Chemical Society, 2022).

Assay [1] relates to T1, P91.
T1 construct: full-length, N-terminal His6-tag, purified recombinant (E. coli); Cys118-His199-Asp167 triad
In kind it is biochemical, uncultured bacterium. The note with it: read-out: KM (μM) ^b.

The target of assay [2] is T1, P91. In kind it is biochemical, uncultured bacterium.
Assay [3] has as its system P91. Conditions: P91-R2; 25 °C, pH 8.0; covalent intermediate.

Where two headings read alike, the source gives them in different places.

By Km is commonly meant the substrate concentration at which the rate is half of its maximum. By Ki is commonly meant the dissociation constant of the complex between target and ligand, obtained from inhibition or displacement. The low end stands for a stronger hold on the target, the high end for a looser hold on the target.

As to `CCOP(=O)(OCC)Oc1ccc2c(c1)Oc1cc(OP(=O)(OCC)OCC)ccc1C21OC(=O)c2ccccc21` [compound 1, FDDEP], in the assay with P91 [1], the Km was determined as 46 ± 9.7 µM. In addition, the “Ki” value at P91 [2] is 290 ± 89 µM.

Take `CCOP(=O)(OCC)Oc1ccc([N+](=O)[O-])cc1` [compound 2, paraoxon-ethyl]: the Km in the assay on P91 [3] turned out to be 290 µM.
